Assay results from the CheMixHub viscosity set.

Test: xn = mol fraction of the nth substance listed

C1CCCCC1 + CO
viscosity [mPa·s], 101.32 kPa
Conditions	321.15 K	322.15 K	323.15 K
x2 = 0.121	0.5549	0.5469	0.539
x2 = 0.226	0.5465	0.5386	0.5465
x2 = 0.396	0.5423	0.5334	0.5239
x2 = 0.467	0.5629	0.5508	0.5356
x2 = 0.5	0.5933	0.5559	0.5379
x2 = 0.527	0.5771	0.5464	0.53
x2 = 0.637	0.5116	0.5017	0.4925
x2 = 0.724	0.4688	0.4624	0.4564
x2 = 0.762	0.4569	0.4514	0.4459
x2 = 0.798	0.4443	0.4363	0.4338
x2 = 0.83	0.4338	0.4284	0.4233
x2 = 0.86	0.4249	0.4198	0.4148
x2 = 0.913	0.4122	0.4074	0.4024
x2 = 0.959	0.4053	0.4003	0.3956

COC(C)=O + C1CCCCC1
viscosity [mPa·s], 101 kPa
Conditions	298.15 K	308.15 K
x1 = 0.055	0.839	0.699
x1 = 0.1546	0.759	0.614
x1 = 0.2543	0.689	0.547
x1 = 0.3548	0.627	0.493
x1 = 0.4537	0.572	0.45
x1 = 0.4985	0.551	0.435
x1 = 0.5556	0.525	0.417
x1 = 0.6544	0.483	0.392
x1 = 0.7479	0.448	0.374
x1 = 0.8548	0.413	0.36
x1 = 0.9548	–	0.352
